How the values were obtained:
[1] = system: MCF-7 cell-derived mammospheres; assay: Mammosphere formation, MCF-7-derived; assay type: cell-based, human
Procedure: FIGS. 4A, 4B and 4C show effects of PAA on formation of MCF-7 cell-derived mammospheres. Primary mammospheres were cultured together with PAA (0.2 and 0.5 mM) or DMSO;
Human breast cancer cells, i.e., MCF-7 and MDA-MB-231, were commercially obtained from American Type Culture Collection (ATCC; Manassas, Va., USA). MCF-7 and MDA-MB-231 cells were cultured in Dulbecco's modified essential medium (DMEM; Hyclone, Logan, Utah, USA) containing 10% fetal bovine serum (FBS; Hyclone), 100 U/mL of penicillin, and 100 μg/mL of streptomycin (Hyclone). The MCF-7 and MDA-MB-231 cells were maintained at 37° C. in a 5% CO2-containing humidified incubator. The cells were plated at a density of 1×10^6 on a 10 cm petri dish. In order to establish primary mammospheres, single cell-suspended MCF-7 and MDA-MB-231 cells were seeded at a density (cells/well) of 3.5×10^4 to 4×10^4 and 0.5×10^4 to 1×10^4, respectively, on ultra-low attachment 6-well plates containing 2 ml complete MammoCult™ medium (StemCell Technologies, Vancouver, BC, Canada). The complete MammoCult™ medium was supplemented with 4 μg/mL of heparin, 0.48 μg/mL of hydrocortisone, 100 U/mL of penicillin and 100 μg/mL of streptomycin. The cells were cultured for 7 days in a 37° C. 5% CO2 incubator.
At 7 days of culture, the cell culture plate was disposed on a scanner (Epson Perfection V700 PHOTO, Epson Korea, Co, Seoul, Korea) to obtain an 8 bit gray scale image of mammospheres. The image was obtained at a low resolution (300 dpi) using an NICE software program and downloaded from ftp://ftp.nist.gov/pub/physics/mLclarke/NICE. For counting, preferred numbers of rows and columns (for example, 2×3 of 6-well plate) were selected to form regions of interest (ROIs), and an oval setting of the NICE program was selected and then respective ROIs were defined by moving the shapes of provided ROIs and controlling the sizes thereof. The background signal of the image was negated using a critical algorithm and the selected image was automatically counted. Regarding the mammosphere formation analysis, formation efficiency of mammospheres (MFE, %) was determined in accordance with the number of mammospheres per well/the total number of cells plated per well×100.

Cancer stem cells = assay: Formation of CSCs under PAA steam (scent); assay type: cell-based; conditions: PAA steam (1 mM), 7 days
Procedure: Cancer stem cells were cultured in the presence of PAA steam (1 mM) and vehicle (methanol) for 7 days.
Then, formation of CSCs was analyzed by emission of PAA scent (FIG. 4C). As a result, PAA inhibited formation of CSCs. Volatile materials, i.e., PAA and phenylethanol, which are the most important for roses and tomatoes were derived from phenylalanine, as shown in FIG. 5A (FIG. 5A). In order to investigate whether or not phenylalanine-derived volatile materials, i.e., PAA and phenylethanol, and structural analogs (2- and 3-phenylpropionaldehydes) can inhibit formation of tumorspheres, these volatile materials were exposed to MCF-7.

ROSs in MDA-MB-231 cells = assay: Measurement of ROS activity (ROS-Glo H2O2 assay); assay type: cell-based, human
Procedure: ROSs in cells were analyzed using a ROS-Glo™ H2O2 assay kit. PAA induced ROS production of breast cancers;
Cancer cells were cultured on a 96-well white plate and cultured together with PAA (0.5 mM) or DMSO for 24 hours. In accordance with the manufacturer's instructions, ROS was measured using an ROS-Glo™ H2O2 detection solution (Promega, Wis., USA). 100 μl of the ROS-Glo™ H2O2 detection solution was added to a 96-well white plate containing breast cancer cells, cultured at room temperature for 20 minutes, and relative luminance was recorded using a plate reader, luminometer, GloMax® Explorer (Promega, Wis., USA).

[2] = system: MDA-MB-231 cell-derived mammospheres; assay: Mammosphere formation, MDA-MB-231-derived; assay type: cell-based, human; conditions: PAA 0.05 and 0.1 mM, 7 days
Procedure: The mammospheres were cultured together with PAA (0.05 and 0.1 mM) or DMSO. MCF-7 and MDA-MBB-231 cells were treated with PAA and DMSO during the culture period of 7 days.
Human breast cancer cells, i.e., MCF-7 and MDA-MB-231, were commercially obtained from American Type Culture Collection (ATCC; Manassas, Va., USA). MCF-7 and MDA-MB-231 cells were cultured in Dulbecco's modified essential medium (DMEM; Hyclone, Logan, Utah, USA) containing 10% fetal bovine serum (FBS; Hyclone), 100 U/mL of penicillin, and 100 μg/mL of streptomycin (Hyclone). The MCF-7 and MDA-MB-231 cells were maintained at 37° C. in a 5% CO2-containing humidified incubator. The cells were plated at a density of 1×10^6 on a 10 cm petri dish. […]
At 7 days of culture, the cell culture plate was disposed on a scanner (Epson Perfection V700 PHOTO, Epson Korea, Co, Seoul, Korea) to obtain an 8 bit gray scale image of mammospheres. […] The background signal of the image was negated using a critical algorithm and the selected image was automatically counted. Regarding the mammosphere formation analysis, formation efficiency of mammospheres (MFE, %) was determined in accordance with the number of mammospheres per well/the total number of cells plated per well×100.

[3] = target: T1, Stat3 / biotin-labelled Stat probe (Homo sapiens, UniProt P40763); assay: Electrophoretic mobility shift assay (EMSA) with Stat3 probe; assay type: cell-based; conditions: PAA-treated mammosphere nuclear extracts
T1 construct: EMSA (electrophoretic mobility-shift assay) of PAA-treated MDA-MB-231 cell-derived mammosphere nuclear lysates; endogenous in cells; host or cells: MDA-MB-231 cell-derived mammospheres (nuclear lysate)
T1 sequence (P40763 2-770 limits assumed): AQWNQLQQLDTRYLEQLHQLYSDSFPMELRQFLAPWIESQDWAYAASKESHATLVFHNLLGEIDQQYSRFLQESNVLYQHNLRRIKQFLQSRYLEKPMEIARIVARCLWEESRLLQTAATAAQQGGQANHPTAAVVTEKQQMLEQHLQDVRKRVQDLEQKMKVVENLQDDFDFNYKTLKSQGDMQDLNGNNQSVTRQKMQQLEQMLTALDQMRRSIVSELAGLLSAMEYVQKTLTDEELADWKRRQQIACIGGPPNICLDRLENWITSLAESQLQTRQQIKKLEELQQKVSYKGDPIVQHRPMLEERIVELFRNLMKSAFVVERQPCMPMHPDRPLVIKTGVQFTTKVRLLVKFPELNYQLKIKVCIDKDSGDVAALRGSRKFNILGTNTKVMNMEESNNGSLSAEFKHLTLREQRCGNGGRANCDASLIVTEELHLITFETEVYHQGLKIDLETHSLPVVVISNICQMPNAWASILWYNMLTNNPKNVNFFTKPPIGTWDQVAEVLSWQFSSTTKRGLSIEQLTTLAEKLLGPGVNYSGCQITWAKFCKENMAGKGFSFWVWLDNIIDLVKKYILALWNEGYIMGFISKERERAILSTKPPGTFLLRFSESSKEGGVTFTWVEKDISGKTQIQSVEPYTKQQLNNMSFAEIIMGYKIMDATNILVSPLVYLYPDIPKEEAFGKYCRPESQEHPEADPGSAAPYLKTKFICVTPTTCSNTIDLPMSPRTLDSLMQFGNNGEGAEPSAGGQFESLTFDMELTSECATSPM
Procedure: Nuclear lysates were cultured in biotin-labeled Stat3 probes and were isolated by 6% PAGE;
Lane 1: probe alone; Lane 2: probe+nuclear extracts; Lane 3: probe+PAA-treated nuclear extracts; Lane 4: self-competition; Lane 5: nuclear extracts cultured together with mutant STAT3 probe. The PAA reduced DNA/STAT3 interactions in mammosphere nuclear lysates;
In accordance with the manufacturer's instructions, EMSAs were detected using a chemiluminescent EMSA kit (Thermoscientific, IL, USA) commercially available from Lightshift. Biotin-top and bottom probe parts (5′-[…]-Biotin3′, SEQ NO. 11 and 5′-[…]-Biotin3′, SEQ NO. 12) of Stat3 probe were annealed and the double-stranded oligonucleotide was end-labelled with biotin.
Biotin-labelled DNA probes were cultured together with PAA-treated nuclear proteins in a total volume of 20 μl of EMSA buffer containing 1 μg/μl poly[dI-dC]) for 20 minutes at room temperature. The reaction mixture was subjected to electrophoresis on 4% polyacrylamide nondenaturing gel at 4° C. in the presence of 0.5×TBE (45 mM Tris borate and 1 mM EDTA) and visualized using a chemiluminescence nucleic acid detection kit (Thermoscientific, IL, USA).
In addition, bonding between PAA-treated nuclear extracts and Stat3 DNAs was analyzed using a biotin-labelled Stat-conjugated probe that bonds to STAT3 at a high affinity. […]

O=CCc1ccccc1 [PAA, phenylacetaldehyde]
size of mammospheres ([1]; MCF-7-derived, 7 days): reduced
formation of primary mammospheres derived from MCF-7 cells ([1]; volatile materials exposed to MCF-7 (FIG. 5B)): potently inhibited
formation of CSCs by emission of PAA scent (Cancer stem cells): inhibited
ROS activity (ROSs in MDA-MB-231 cells): induced
number of primary mammospheres derived from MDA-MB-231 cells [2]: reduced
bonding between biotin-labelled Stat probe and Stat3 [3]: inhibited

Source: patent publication US11324706B2, “Composition for inhibiting growth of breast cancer stem cells containing phenylacetaldehyde” (JEJU NATIONAL UNIVERSITY INDUSTRY-ACADEMIC COOPERATION …, priority 2016, dated 2022)
